Patent US7829560B2, “1,4-disubstituted naphthalenes as inhibitors of P38 MAP kinase” (Arqule, Inc., priority 2004, dated 2010)

Molecular target: T1, p38α (Homo sapiens, UniProt Q16539)
T1 construct: p38 MAP Kinases are recombinant human full-length proteins with an amino-terminal GST fusion; GST (N); purchased Upstate Biotechnology Inc; host or cells: E. coli
Assay: p38 MAP Kinase assay: inhibition of ATF2 phosphorylation, ELISA
Format: biochemical
Conditions: for inhibition at 10 µM: substrate ATF2, read-out: [ENZ] P38 ALPHA, PCT INH, ELISA (10 uM;ATF2) (Percent); for IC50: ATF2 phosphorylation, read-out: [ENZ] P38 ALPHA, IC50, ELISA
Text: Compounds of the invention are screened for the ability to inhibit ATF2 phosphorylation by p38 MAP Kinase in vitro. The ability of compounds to inhibit ATF2 phosphorylation in this in vitro assay is correlated with the inhibition of p38 MAP Kinase and TNFα expression in vivo, and is therefore an indicator of potential in vivo therapeutic activity (Raingeaud, J., et al, J. Biol. Chem., 270: 7420-7426, 1995, Brinkman, M. N., et al, J. Biol. Chem. 274: 30882-30886, 1999 and Fuchs, S. Y. et al, J. Biol. Chem. 275: 12560-12564, 2000).
Materials: All kinases and the substrate ATF2 are acquired from Upstate Biotechnology Inc. p38 MAP Kinases are recombinant human full-length proteins with an amino-terminal GST fusion, expressed in and purified from E. coli. ATF2 is a GST fusion protein containing amino acids 19-96 of human ATF2 expressed in E. coli. All proteins are aliquoted and stored at −80° C.
Methods: p38 MAP Kinase assays are performed using an assay buffer containing 25 mM HEPES, pH 7.5, 10 mM MgCl2, 2 mM DTT, 20 mM β-glycerophosphate, 0.1 mM Na3VO4, 40 μM ATP and 1.25 μM of ATF2 and in the absence or presence of 1% human serum albumin, Method I and II, respectively, with 0.4-6 ng of protein depending on the kinase used. Compounds are serially diluted in DMSO and 2 μL of test compound at 25× final concentration is used. The vehicle control receives DMSO only. Test compounds are pre-incubated with 20 μl of enzyme in kinase buffer (25 mM HEPES, pH 7.5, 10 mM MgCl2, 2 mM DTT, 20 mM β-glycerophosphate, 0.1 mM Na3VO4 in the absence or presence of 1% human serum albumin, Method I and II, respectively) at room temperature for 15 minutes. […] The reactions are incubated for 30 minutes at 37° C. and terminated by the addition of 18 μl of 200 mM EDTA. An ELISA method (I or II) is used to measure the phosphorylation of ATF2 at Thr 69. Method I: 96-well high binding plates (Corning 3369) are coated with 50 μl of kinase reaction for 1 hour at 37° C. The coated plates are washed with 200 μl washing buffer (25 mM Tris HCl, pH 8.3, 192 mM glycine, 0.1% SDS and 0.05% Tween-20) three times. The plates are then washed three times with SuperBlock in TBS (Pierce, 37535). After blocking, plates are incubated with 50 μl of rabbit anti-phospho-ATF2 antibody (Cell Signaling, 9221L, 1:500) for 30 minutes at 37° C. Plates are washed three times with washing buffer prior to incubation with 50 μl HRP-conjugated goat anti-rabbit antibody (Cell Signaling, 7074, 1:500) for 30 minutes at 37° C. Plates are then washed three times with washing buffer before incubation with 50 μl of Ultra TMB-ELISA (Pierce, 34028) for 8 minutes at room temperature. Finally, 50 ul of phosphoric acid (1 M) is added to stop reactions and plate absorbance is read at 450 nm on a SpectraMax 250 plate reader. Method II: 96-well high binding plates (Corning 3369) are coated with 400 ng of monoclonal antibody against GST-tag (Cell signaling) in 100 μl containing sodium borate (pH 8.3) for 90 minutes at 37° C. The plates are washed with 200 μl washing buffer (25 mM Tris HCl, pH 7.2, 150 mM NaCl and Tween-20) three times and blocked with 200 μl of 5% nonfat milk for 30 minutes at room temperature. The plates are washed three times with washing buffer, 50 μl of stopped kinase reaction are added to each well and incubated for 80 minutes at 37° C. The plates are washed three times with 200 μl washing buffer, and the plates are incubated with 50 μl of rabbit anti-phospho-ATF2 antibody (Cell Signaling, 9221L, 1:500) for 30 minutes at 37° C. Plates are washed three times with washing buffer prior to incubation with 50 μl HRP-conjugated goat anti-rabbit antibody (Cell Signaling, 7074, 1:500) for 30 minutes at 37° C. Plates are washed three times with washing buffer before incubation with 50 μl of Ultra TMB-ELISA (Pierce, 34028) for 25 minutes at room temperature. Finally, 50 μl of phosphoric acid (1 M) is added to stop reactions and plate absorbance is read at 450 nm on a SpectraMax 250 plate reader. […]

T1 sequence (Q16539 whole entry, the tested form may be a part): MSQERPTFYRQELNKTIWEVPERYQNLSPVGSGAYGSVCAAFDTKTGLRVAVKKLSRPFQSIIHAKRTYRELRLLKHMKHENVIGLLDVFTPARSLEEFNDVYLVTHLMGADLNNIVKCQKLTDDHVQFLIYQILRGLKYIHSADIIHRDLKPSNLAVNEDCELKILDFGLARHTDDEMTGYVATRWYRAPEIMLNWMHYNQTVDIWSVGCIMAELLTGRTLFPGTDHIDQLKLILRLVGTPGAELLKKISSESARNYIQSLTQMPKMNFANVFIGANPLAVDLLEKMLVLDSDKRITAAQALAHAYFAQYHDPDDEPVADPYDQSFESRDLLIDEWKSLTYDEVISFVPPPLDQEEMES

| Structure (SMILES) | inhibition at 10 µM [%] | IC50 [µM] |
| --- | --- | --- |
| O=C(Nc1ccc(OCCN2CCOCC2)c2ccccc12)c1cccc(N2CCC(CO)CC2)n1 [Compound B145] | 11 |  |
| CCOC(=O)N1CCN(CCOc2ccc(NC(=O)c3ccc(CN4CCS(=O)(=O)CC4)cc3)c3ccccc23)CC1 [Compound B16] | 27.5 |  |
| Cc1cc(C(=O)Nc2ccc(OCCN3CCOCC3)c3ccccc23)cc(N2CCC(N3CCCC3)CC2)n1 [Compound B152] | 0 |  |
| O=C(Nc1ccc(OCCN2CCOCC2)c2ccccc12)c1cccc(N2CCC(Cc3ccccc3)CC2)n1 [Compound B140] | 4 |  |
| Cc1cc(C(=O)Nc2ccc(OCCN3CCOCC3)c3ccccc23)cc(N2CCc3ccccc3C2)n1 [Compound B150] | 15 | > 100 |
| CCOc1ccc(-c2cccc(C(=O)Nc3ccc(OCCN4CCOCC4)c4ccccc34)c2)cc1 [Compound B107] | 2 |  |
| O=C(Nc1ccc(OCCN2CCOCC2)c2ccccc12)c1ccnc(N2CCC(N3CCCC3)CC2)c1 [Compound B125] | 23.5 |  |
| O=C(Nc1ccc(OCCN2C(=O)CCC2=O)c2ccccc12)c1cc(F)cc(N2CCOCC2)c1 [Compound B221] |  | > 10 |
| CN(C)CCN(C)c1cc(F)cc(C(=O)Nc2ccc(OCCN3CCOCC3)c3ccccc23)c1 [Compound B68] | 10 |  |
| Cc1cccc(N2CCN(c3cccc(C(=O)Nc4ccc(OCCN5CCOCC5)c5ccccc45)c3)CC2)c1 [Compound B172] | 25 |  |
| O=C(Nc1ccc(OCCN2CCOCC2)c2ccccc12)c1cccc(-c2ccc(Cl)cc2Cl)c1 [Compound B95] | 58 | 1.75 |
| O=C(Nc1ccc(OCCN2CCOCC2)c2ccccc12)c1cccc2c1Cc1ccccc1-2 [Compound B75] | 27 | > 10 |
| O=C(Nc1ccc(OCCN2CCOCC2)c2ccccc12)c1cccc(-c2ccc(C3CCCCC3)cc2)c1 [Compound B118] | 0 |  |
| O=C(Nc1ccc(OCCN2CCSCC2)c2ccccc12)c1ccc(CN2CCS(=O)(=O)CC2)cc1 [Compound B17] | 30.5 |  |
| CC(C)c1cc(C(=O)Nc2ccc(OCCN3CCOCC3)c3ccccc23)c(O)c(C(C)C)c1 [Compound B76] | 0 |  |
| O=C(Nc1ccc(OCCN2CCCCC2)c2ccccc12)c1ccc(-n2ccc(C(F)(F)F)n2)cc1 [Compound B10] | 12.5 |  |
| O=C(Nc1ccc(OCCN2CCCCC2)c2ccccc12)c1ccnc(Cl)c1 [Compound B7] | 21 |  |
| O=C(Nc1ccc(OCCN2CCOCC2)c2ccccc12)c1cccc(C(=O)c2ccccc2)c1 [Compound B78] | 34 | > 10 |
| Cc1cc(C(=O)Nc2ccc(OCCN3CCOCC3)c3ccccc23)cc(N2CCSC2)n1 [Compound B151] | 0 |  |
| O=C(Nc1ccc(OCCN2CCOCC2)c2ccccc12)c1cccc(-c2ccccc2Oc2ccccc2)c1 [Compound B115] | 10 |  |
| O=C(Nc1ccc(OCCN2CCOCC2)c2ccccc12)c1ccnc(N2CCC(CO)CC2)c1 [Compound B131] | 34 |  |
| O=C(Nc1ccc(OCCN2CCOCC2)c2ccccc12)c1cccc(-c2cccc(Cl)c2)c1 [Compound B94] | 71 | 1.14 |
| Cc1cc(C(=O)Nc2ccc(OCCN3CCOCC3)c3ccccc23)cc(N2CCCC2c2ccccc2Cl)n1 (stereo not shown) [Compound B156] | 19 | > 100 |
| O=C(Nc1ccc(OCCN2CCCCC2)c2ccccc12)c1ccc(CN2CCS(=O)(=O)CC2)cc1 [Compound B14] | 6 |  |

| Structure (SMILES) | inhibition at 10 µM [%] | IC50 [µM] |
| --- | --- | --- |
| O=C(Nc1ccc(OCCN2CCOCC2)c2ccccc12)c1cccc2c1C(=O)c1ccccc1-2 [Compound B74] | 31 |  |
| CC(C)(C)CCNc1cccc(C(=O)Nc2ccc(OCCN3CCOCC3)c3ccccc23)n1 [Compound B147] | 12 |  |
| O=C(Nc1ccc(OCCN2CCOCC2)c2ccccc12)c1cccc(C(F)(F)F)c1 [Compound B73] | 10 |  |
| CN1CCN(CCOc2ccc(NC(=O)c3ccnc(Cl)c3)c3ccccc23)CC1 [Compound B6] | 7.5 |  |
| O=C(Nc1ccc(OCCN2CCOCC2)c2ccccc12)c1cccc(N2CCC(c3ccccc3)CC2)n1 [Compound B72] | 0 |  |
| O=C(Nc1ccc(OCCN2CCOCC2)c2ccccc12)c1cccc(-c2cc(Cl)cc(Cl)c2)c1 [Compound B96] | 31 | > 100 |
| CSc1ccccc1-c1cccc(C(=O)Nc2ccc(OCCN3CCOCC3)c3ccccc23)c1 [Compound B116] | 54 | 2.74 |
| O=C(Nc1ccc(OCCN2CCOCC2)c2ccccc12)c1cc(C(F)(F)F)cc(C(F)(F)F)c1 [Compound B83] | 18 |  |
| CCN(C)c1cc(C(=O)Nc2ccc(OCCN3CCOCC3)c3ccccc23)cc(C)n1 [Compound B157] | 8 |  |
| C[C@@H]1CN(CCOc2ccc(NC(=O)c3ccc(-n4cccn4)cc3)c3ccccc23)C[C@H](C)O1 [Compound B12] | 16.5 |  |
| O=C(Nc1ccc(OCCN2C(=O)c3ccccc3C2=O)c2ccccc12)c1cc(F)cc(N2CCOCC2)c1 [Compound B187] |  | > 10 |
| CCOc1ccccc1-c1cccc(C(=O)Nc2ccc(OCCN3CCOCC3)c3ccccc23)c1 [Compound B109] | 52 | 4.07 |
| O=C(Nc1ccc(OCCN2CCOCC2)c2ccccc12)c1cccc(N2CCCCC2)n1 [Compound B142] | 33 | > 100 |
| O=C(Nc1ccc(OCCN2CCOCC2)c2ccccc12)c1ccnc(N2CCc3ccccc3C2)c1 [Compound B121] | 31.5 |  |
| O=C(Nc1ccc(OCCN2CCOCC2)c2ccccc12)c1cccc(N2CCOCC2)n1 [Compound B134] | 20 |  |
| Cc1cc(C(=O)Nc2ccc(OCCN3CCOCC3)c3ccccc23)nn1C [Compound B79] | 1 |  |
| CCn1nc(C)cc1C(=O)Nc1ccc(OCCN2CCOCC2)c2ccccc12 [Compound B80] | 9 |  |
| CCC(C)N(C)c1cccc(C(=O)Nc2ccc(OCCN3CCOCC3)c3ccccc23)n1 (stereo not shown) [Compound B149] | 8.5 |  |
| CC1CCCN1c1cccc(C(=O)Nc2ccc(OCCN3CCOCC3)c3ccccc23)n1 (stereo not shown) [Compound B144] | 17 |  |
| O=C(Nc1ccc(OCCN2CCOCC2)c2ccccc12)c1cccc(N2CCC(N3CCCC3)CC2)c1 [Compound B171] | 16 |  |
| CCCCc1ccc(-c2cccc(C(=O)Nc3ccc(OCCN4CCOCC4)c4ccccc34)c2)cc1 [Compound B117] | 4 |  |
| O=C(Nc1ccc(OCc2ccco2)c2ccccc12)c1cc(F)cc(N2CCOCC2)c1 [Compound B223] |  | 12.8 |
| Cc1ccc(-c2cccc(C(=O)Nc3ccc(OCCN4CCOCC4)c4ccccc34)c2)c2ccccc12 [Compound B114] | 11.3 |  |
| O=C(Nc1ccc(OCCN2CCOCC2)c2ccccc12)c1ccnc(N2Cc3ccccc3C2)c1 [Compound B132] | 36 |  |
